Data from US10239887B2, “Positive allosteric modulators of the muscarinic acetylcholine receptor M4” (Vanderbilt University, priority 2016, dated 2019).
Where a name gives a salt, the structure may show the parent alone. Read-outs that look alike come from different tables or passages of the source.

Biological target: T1, human mAChR M4 (Homo sapiens, UniProt P08173)
T1 sequence (P08173 1-479): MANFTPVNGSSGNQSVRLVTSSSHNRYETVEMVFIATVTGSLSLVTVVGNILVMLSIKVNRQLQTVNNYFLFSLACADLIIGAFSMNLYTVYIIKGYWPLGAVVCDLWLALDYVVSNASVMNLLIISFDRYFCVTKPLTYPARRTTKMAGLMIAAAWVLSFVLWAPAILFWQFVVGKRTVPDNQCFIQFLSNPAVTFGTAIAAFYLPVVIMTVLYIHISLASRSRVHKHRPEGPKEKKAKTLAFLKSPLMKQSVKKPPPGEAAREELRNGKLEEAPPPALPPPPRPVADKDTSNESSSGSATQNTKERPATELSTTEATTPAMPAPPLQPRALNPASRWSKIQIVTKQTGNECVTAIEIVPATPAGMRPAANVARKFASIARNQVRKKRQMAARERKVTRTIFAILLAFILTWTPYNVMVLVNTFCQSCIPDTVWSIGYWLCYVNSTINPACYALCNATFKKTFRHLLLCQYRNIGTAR
Experiment: mAChR M4 cell-based functional assay (calcium flux), human M4

[1] = Human M4 EC50 (nM), Table 10, calcium flux, PAM activity with EC20 acetylcholine
[2] = Table 10, % ACh maximum at 30 μM
[3] = Human M4 EC50 (nM), Table 11, calcium flux, PAM activity with EC20 acetylcholine
[4] = Table 11, % ACh maximum at 30 μM
[5] = Human M4 EC50 (nM), Table 10, unit μM (bounds)
[6] = Human M4, % ACh maximum at 30 μM
[7] = Human M4 EC50, CHO-K1 hM4-Gqi5 cells, calcium flux, increase in EC20 acetylcholine response

| EC50 [1] | Emax [2] | Compound | further results |
| --- | --- | --- | --- |
| 2390 nM | 50.1% | Cc1nnc2sc3c(N4CC(C)(N)C4)ncnc3c2c1C [Compound 98, 1-(3,4-dimethylpyrimido [4′,5′:4,5]thieno[2,3-c]pyridazin-8-yl)-3-methyl-azetidin-3-amine dihydrochloride] |  |
| 277 nM | 76.7% | Cc1nnc2sc3c(NCc4ccc(OC(F)F)nc4)ncnc3c2c1C [Compound 90, N-[[6-(difluoromethoxy)-3-pyridyl]methyl]-3,4-dimethyl-pyrimido [4′,5′:4,5]thieno[2,3-c] pyridazin-8-amine] |  |
|  |  | Cc1nnc2sc3c(N4CC(Oc5ccnc(Cl)c5)C4)ncnc3c2c1C [Compound 349, 8-[3-[(2-chloro-4-pyridyl)oxy]azetidin-1-yl]-3,4-dimethyl-pyrimido[4′,5′:4,5] thieno[2,3-c]pyridazine dihydrochloride] | EC50 [3]: 210 nM; Emax [4]: 81.2% |
| 3970 nM | 29% | Cc1nnc2sc3c(NC4CC5(C4)CN(C(=O)CC(F)(F)F)C5)ncnc3c2c1C [Compound 168, 1-[6-[(3,4-dimethylpyrimido [4′,5′:4,5]thieno[2,3-c]pyridazin-8-yl)amino]-2-azaspiro[3.3]heptan-2-yl]-3,3,3-trifluoro-propan-1-one] |  |
| 294 nM | 34.5% | Cc1cc(C)c2c(n1)sc1c(NCc3ccc(S(C)(=O)=O)cc3)ncnc12 [Compound 204, 7,9-dimethyl-N-[(4-methylsulfonylphenyl)methyl]pyrido [3′,2′:4,5]thieno[3,2-d] pyrimidin-4-amine] |  |
| 453 nM | 74.5% | Cc1cc(C)c2c(n1)sc1c(N3CC4CC4C3)ncnc12 (stereo not shown) [Compound 196, 4-(3-azabicyclo [3.1.0]hexan-3-yl)-7,9-dimethyl-pyrido [3′,2′:4,5]thieno[3,2-d] pyrimidine] |  |
| 5660 nM | 61.2% | COc1ccc(C2CC2Nc2ncnc3c2sc2ncc(Cl)c(C)c23)cc1 (stereo not shown) [Compound 236, 8-chloro-N-[2-(4-methoxyphenyl)cyclopropyl]-9-methyl-pyrido [3′,2′:4,5]thieno[3,2-d] pyrimidin-4-amine dihydrochloride] |  |
|  |  | Cc1cc(O[C@H]2C[C@@H](C)N(c3ncnc4c3sc3nnc(C)c(C)c34)C2)ccn1 [Compound 365, 3,4-dimethyl-8-[(2R,4S)-2-methyl-4-[(2-methyl-4-pyridyl)oxy]pyrrolidin-1-yl]pyrimido [4′,5′:4,5]thieno[2,3-c] pyridazine dihydrochloride] | EC50 [3]: 551 nM; Emax [4]: 65.2% |
|  | 34.9% | Cc1nnc2sc3c(NC4CC5(C4)CN(C(=O)C4CCOCC4)C5)ncnc3c2c1C [Compound 169, [6-[(3,4-dimethylpyrimido[4′,5′:4,5]thieno[2,3-c]pyridazin-8-yl)amino]-2-azaspiro[3.3]heptan-2-yl]-tetrahydropyran-4-yl-methanone] | EC50 [5]: > 10000 nM |
| 192 nM | 61.3% | Cc1nnc2sc3c(NCc4ccc(S(C)(=O)=O)cc4)ncnc3c2c1C [Compound 93, 3,4-dimethyl-N-[(4-methylsulfonylphenyl)methyl] pyrimido[4′,5′:4,5]thieno [2,3-c]pyridazin-8-amine] |  |
|  |  | Cc1nnc2sc3c(N4CC(Oc5ccc(F)cc5)C4)ncnc3c2c1C [Compound 30, 8-(3-(4-fluorophenoxy)azetidin-1-yl)-3,4-dimethylpyrimido [4′,5′:4,5]thieno[2,3-c] pyridazine] | Emax [6]: 65%; EC50 [7]: 2610 nM |
|  |  | Cc1nnc2sc3c(N4CC[C@@H](Oc5cccnc5)C4)ncnc3c2c1C [Compound 340, 3,4-dimethyl-8-[(3R)-3-(3-pyridyloxy)pyrrolidin-1-yl]pyrimido[4′,5′:4,5] thieno[2,3-c]pyridazine] | EC50 [3]: 101 nM; Emax [4]: 72.9% |
| 3620 nM | 60.6% | Cc1nc2sc3c(NC4CN(c5ncc(C(F)(F)F)cn5)C4)ncnc3c2c(C)c1Cl [Compound 272, 8-chloro-7,9-dimethyl-N-[1-[5-(trifluoromethyl)pyrimidin-2-yl]azetidin-3-yl]pyrido[3′,2′:4,5] hieno[3,2-d]pyrimidin-4-amine dihydrochloride] |  |
| 341 nM | 66.5% | Cc1cc(C)c2c(n1)sc1c(N3CC(c4ccncc4)C3)ncnc12 [Compound 201, 7,9-dimethyl-4-[3-(4-pyridyl)azetidin-1-yl] pyrido[3′,2′:4,5]thieno [3,2-d]pyrimidine] |  |
|  |  | Cc1nnc2sc3c(N4CC[C@H](Oc5ccc(C(F)(F)F)cn5)C4)ncnc3c2c1C [Compound 360, 3,4-dimethyl-8-[(3S)-3-[[5-(trifluoromethyl)-2-pyridyl]oxy]pyrrolidin-1-yl] pyrimido[4′,5′:4,5]thieno [2,3-c]pyridazine dihydrochloride] | EC50 [3]: 333 nM; Emax [4]: 56% |
| 156 nM | 78.3% | Cc1nnc2sc3c(NCc4ccc(C(=O)NC5(C)CC5)cc4)ncnc3c2c1C [Compound 149, 4-[[(3,4-dimethylpyrimido [4′,5′:4,5]thieno[2,3-c]pyridazin-8-yl)amino]methyl]-N-(1-methylcyclopropyl) benzamide] |  |
| 200 nM | 86% | COc1ccc(C2CC2Nc2ncnc3c2sc2nnc(C)c(C)c23)cc1 (stereo not shown) [Compound 77, N-(2-(4-methoxyphenyl)cyclopropyl)-3,4-dimethylpyrimido [4′,5′:4,5]thieno[2,3-c] pyridazin-8-amine] |  |
| 244 nM | 86.1% | Cc1nnc2sc3c(NCc4ccc(C(=O)N[C@H](C)C(F)(F)F)cc4)ncnc3c2c1C [Compound 157, 4-[[(3,4-dimethylpyrimido [4′,5′:4,5]thieno[2,3-c]pyridazin-8-yl)amino]methyl]-N-[(1R)-2,2,2-trifluoro-1-methyl-ethyl]benzamide] |  |
|  | 45.3% | Cc1nc2sc3c(NCc4ccc(C5(O)CCC5)cc4)ncnc3c2c(C)c1Cl [Compound 276, 1-[4-[[(8-chloro-7,9-dimethyl-pyrido [3′,2′:4,5]thieno[3,2-d]pyrimidin-4-yl)amino]methyl]phenyl]cyclobutanol] | EC50 [5]: > 10000 nM |
|  |  | Cc1cnn(C)c1-c1ccc(CNc2ncnc3c2sc2nnc(C)c(C)c23)cc1 [Compound 342, N-[[4-(2,4-dimethylpyrazol-3-yl)phenyl]methyl]-3,4-dimethyl-pyrimido[4′,5′:4,5] thieno[2,3-c]pyridazin-8-amine] | EC50 [3]: 1100 nM; Emax [4]: 81.5% |
|  |  | Cc1cc(C)c2c(n1)oc1c(NC3CN(c4cc(Cl)ncc4Cl)C3)ncnc12 [Compound 60, N-[1-(2,5-dichloro-4-pyridyl)azetidin-3-yl]-7,9-dimethyl-pyrido[3′,2′:4,5]furo[3,2-d]pyrimidin-4-amine dihydrochloride] | Emax: 49.3%; EC50 [7]: 1490 nM |
|  |  | Cc1nnc2sc3c(N4CC[C@H](Oc5cccnc5)C4)ncnc3c2c1C [Compound 332, 3,4-dimethyl-8-[(3S)-3-(3-pyridyloxy)pyrrolidin-1-yl] pyrimido[4′,5′:4,5]thieno [2,3-c]pyridazine] | EC50 [3]: 129 nM; Emax [4]: 80.5% |
| 288 nM | 59.7% | Cc1nc(C2CC2)ccc1N1CC(Nc2ncnc3c2sc2nnc(C)c(C)c23)C1 [Compound 83, N-[1-(6-cyclopropyl-2-methyl-3-pyridyl)azetidin-3-yl]-3,4-dimethyl-pyrimido [4′,5′:4,5]thieno[2,3-c] pyridazin-8-amine] |  |
|  |  | Cc1nnc2sc3c(N4CC(Oc5cccnc5)C4)ncnc3c2c1C [Compound 356, 3,4-dimethyl-8-[3-(3-pyridyloxy)azetidin-1-yl]pyrimido[4′,5′:4,5]thieno [2,3-c]pyridazine dihydrochloride] | EC50 [3]: 1170 nM; Emax [4]: 32.8% |
| 380 nM | 84.8% | Cc1nnc2sc3c(NCc4ccc(C(=O)NC5CCCCC5)cc4)ncnc3c2c1C [Compound 159, N-cyclohexyl-4-[[(3,4-dimethylpyrimido [4′,5′:4,5]thieno[2,3-c]pyridazin-8-yl)amino]methyl]benzamide] |  |
| 555 nM | 47.8% | Cc1c(Cl)cnc2sc3c(N4CC5CC5C4)ncnc3c12 (stereo not shown) [Compound 219, 4-(3-azabicyclo[3.1.0]hexan-3-yl)-8-chloro-9-methyl-pyrido [3′,2′:4,5]thieno[3,2-d] pyrimidine] |  |
|  |  | Cc1nnc2oc3c(NC4CC(F)(F)C4)ncnc3c2c1C [Compound 72, N-(3,3-difluorocyclobutyl)-3,4-dimethyl-pyrimido [4′,5′:4,5]furo[2,3-c]pyridazin-8-amine] | Emax [6]: 57.9%; EC50 [7]: 1750 nM |
| 1140 nM | 90.9% | COc1nnc2sc3c(NC4CN(c5ncc(C(F)(F)F)cn5)C4)ncnc3c2c1C [Compound 282, 3-methoxy-4-methyl-N-[1-[5-(trifluoromethyl)pyrimidin-2-yl]azetidin-3-yl]pyrimido[4′,5′:4,5]thieno [2,3-c]pyridazin-8-amine] |  |
| 6020 nM | 49.4% | Cc1nc2sc3c(NCc4ccc(C(C)(C)O)cc4F)ncnc3c2c(C)c1Cl [Compound 279, 2-[4-[[(8-chloro-7,9-dimethyl-pyrido [3′,2′:4,5]thieno[3,2-d]pyrimidin-4-yl)amino]methyl]-3-fluoro-phenyl] propan-2-ol] |  |
